# Where two headings read alike, the source gives them in different places.
# Columns and labels:
# EGFR del19/T790M/C797S = EGFR del19/T790M/C797S (Homo sapiens, UniProt P00533, C797S/DEL746-750/T790M); experiment: Biochemical EGFR kinase assay (Lance Ultra TR-FRET), triple mutant del19/T790M/C797S
# Description: (§1) Biochemical EGFR kinase assays were conducted using Lance Ultra time-resolved fluorescence resonance energy transfer (TR-FRET) technology from Perkin-Elmer. Compounds of the invention were initially diluted to 20 mM in 100% DMSO for storage and made into kinase buffer solution to create a compound concentration ranging from 0.003 μM and 10 μM.
# (§2) Each kinase reactions were incubated at room temperature for 1 hour and then stopped by the addition of 4 μL of stop solution (10 mM EDTA). The specific Europium-labeled-anti-phosphopeptide antibody (PerkinElmer, AD0069) diluted in LANCE detection buffer was then added to a final concentration of 2 nM. After 60 minutes incubation at room temperature the LANCE signal was measured on an EnVision Multilabel Reader (Perkin-Elmer). Excitation wavelength was set at 320 nm and emission monitored at 615 nm (donor) and 665 nm (acceptor). The IC50 values were determined using GraphPad prism software (GraphPad Software, Inc., San Diego, CA, USA).
# EGFR wildtype = EGFR wildtype (Homo sapiens, UniProt P00533); experiment: Biochemical EGFR kinase assay (Lance Ultra TR-FRET), wildtype
# Description: as §1, §2
# EGFR L858R/T790M/C797S = EGFR L858R/T790M/C797S (Homo sapiens, UniProt P00533, C797S/L858R/T790M); experiment: Biochemical EGFR kinase assay (Lance Ultra TR-FRET), triple mutant L858R/T790M/C797S
# Chain of EGFR L858R/T790M/C797S (P00533 25-1210 T790M/C797S/L858R): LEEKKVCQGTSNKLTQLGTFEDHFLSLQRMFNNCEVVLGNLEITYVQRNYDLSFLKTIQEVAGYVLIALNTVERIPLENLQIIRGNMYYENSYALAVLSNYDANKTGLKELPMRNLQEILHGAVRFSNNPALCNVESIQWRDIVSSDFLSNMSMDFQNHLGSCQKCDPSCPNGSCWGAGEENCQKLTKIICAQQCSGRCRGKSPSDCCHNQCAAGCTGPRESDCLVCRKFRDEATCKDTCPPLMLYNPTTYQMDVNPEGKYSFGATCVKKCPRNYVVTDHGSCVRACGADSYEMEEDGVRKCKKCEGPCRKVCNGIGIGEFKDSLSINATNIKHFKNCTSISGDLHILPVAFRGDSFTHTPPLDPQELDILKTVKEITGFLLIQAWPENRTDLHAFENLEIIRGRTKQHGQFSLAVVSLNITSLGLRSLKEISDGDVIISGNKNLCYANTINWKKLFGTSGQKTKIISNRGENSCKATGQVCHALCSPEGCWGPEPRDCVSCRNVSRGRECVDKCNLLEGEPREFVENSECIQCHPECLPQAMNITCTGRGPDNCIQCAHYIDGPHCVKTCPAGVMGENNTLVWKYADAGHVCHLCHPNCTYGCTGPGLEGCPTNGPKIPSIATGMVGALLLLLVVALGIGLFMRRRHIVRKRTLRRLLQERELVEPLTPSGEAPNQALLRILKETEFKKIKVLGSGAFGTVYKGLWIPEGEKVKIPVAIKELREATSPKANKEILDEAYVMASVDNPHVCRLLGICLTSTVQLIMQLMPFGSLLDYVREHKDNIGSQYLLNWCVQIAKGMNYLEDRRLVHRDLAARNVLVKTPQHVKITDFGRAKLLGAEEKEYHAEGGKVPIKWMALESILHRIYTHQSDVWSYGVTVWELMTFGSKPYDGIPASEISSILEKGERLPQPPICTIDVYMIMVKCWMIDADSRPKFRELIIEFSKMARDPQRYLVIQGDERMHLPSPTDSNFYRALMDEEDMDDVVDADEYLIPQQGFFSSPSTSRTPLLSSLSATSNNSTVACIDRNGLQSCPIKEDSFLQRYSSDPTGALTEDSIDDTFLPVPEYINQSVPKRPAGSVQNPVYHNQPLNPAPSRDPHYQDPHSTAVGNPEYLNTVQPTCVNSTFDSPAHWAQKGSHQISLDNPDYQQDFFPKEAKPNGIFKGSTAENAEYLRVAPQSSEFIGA
# Description: as §1, §2
# EGFR del19/C797S = EGFR del19/C797S (Homo sapiens, UniProt P00533, C797S/DEL746-750); experiment: Biochemical EGFR kinase assay (Lance Ultra TR-FRET), double mutant del19/C797S
# Chain of EGFR del19/C797S (P00533 with tags, fused parts or gaps DEL746-750/C797S): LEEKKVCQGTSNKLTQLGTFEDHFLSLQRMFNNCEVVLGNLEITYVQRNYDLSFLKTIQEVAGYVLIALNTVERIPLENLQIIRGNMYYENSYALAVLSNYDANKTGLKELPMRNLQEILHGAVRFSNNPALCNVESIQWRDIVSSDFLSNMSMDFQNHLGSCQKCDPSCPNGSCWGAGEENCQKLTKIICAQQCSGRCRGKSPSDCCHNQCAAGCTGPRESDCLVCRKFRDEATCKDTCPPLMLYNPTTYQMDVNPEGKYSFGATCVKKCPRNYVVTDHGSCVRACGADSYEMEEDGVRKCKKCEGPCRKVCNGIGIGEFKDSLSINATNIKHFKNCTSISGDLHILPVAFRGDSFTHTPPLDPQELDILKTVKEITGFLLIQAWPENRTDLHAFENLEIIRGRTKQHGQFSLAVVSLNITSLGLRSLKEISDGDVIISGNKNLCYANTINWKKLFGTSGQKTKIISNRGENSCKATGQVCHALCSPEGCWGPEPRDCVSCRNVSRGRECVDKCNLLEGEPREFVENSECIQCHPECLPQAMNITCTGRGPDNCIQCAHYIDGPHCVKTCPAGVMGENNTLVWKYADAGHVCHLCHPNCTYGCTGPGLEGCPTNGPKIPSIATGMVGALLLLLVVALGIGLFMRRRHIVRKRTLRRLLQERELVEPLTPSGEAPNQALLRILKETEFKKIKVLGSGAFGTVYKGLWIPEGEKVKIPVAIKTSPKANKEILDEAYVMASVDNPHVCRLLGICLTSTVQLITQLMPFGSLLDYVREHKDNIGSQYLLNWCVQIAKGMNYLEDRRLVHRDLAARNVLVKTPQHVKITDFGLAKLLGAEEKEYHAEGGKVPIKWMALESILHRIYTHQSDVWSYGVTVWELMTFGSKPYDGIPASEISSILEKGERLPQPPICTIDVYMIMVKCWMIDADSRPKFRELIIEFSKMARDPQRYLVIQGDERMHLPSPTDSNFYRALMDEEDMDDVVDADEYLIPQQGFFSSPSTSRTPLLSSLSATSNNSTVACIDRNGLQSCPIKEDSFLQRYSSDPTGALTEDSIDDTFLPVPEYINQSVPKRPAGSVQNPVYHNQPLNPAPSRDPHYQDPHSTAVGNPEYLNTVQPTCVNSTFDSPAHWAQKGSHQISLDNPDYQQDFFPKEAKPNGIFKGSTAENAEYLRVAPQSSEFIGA
# Description: as §1, §2
# EGFR L858R/C797S = EGFR L858R/C797S (Homo sapiens, UniProt P00533, C797S/L858R); experiment: Biochemical EGFR kinase assay (Lance Ultra TR-FRET), double mutant L858R/C797S
# Chain of EGFR L858R/C797S (P00533 25-1210 C797S/L858R): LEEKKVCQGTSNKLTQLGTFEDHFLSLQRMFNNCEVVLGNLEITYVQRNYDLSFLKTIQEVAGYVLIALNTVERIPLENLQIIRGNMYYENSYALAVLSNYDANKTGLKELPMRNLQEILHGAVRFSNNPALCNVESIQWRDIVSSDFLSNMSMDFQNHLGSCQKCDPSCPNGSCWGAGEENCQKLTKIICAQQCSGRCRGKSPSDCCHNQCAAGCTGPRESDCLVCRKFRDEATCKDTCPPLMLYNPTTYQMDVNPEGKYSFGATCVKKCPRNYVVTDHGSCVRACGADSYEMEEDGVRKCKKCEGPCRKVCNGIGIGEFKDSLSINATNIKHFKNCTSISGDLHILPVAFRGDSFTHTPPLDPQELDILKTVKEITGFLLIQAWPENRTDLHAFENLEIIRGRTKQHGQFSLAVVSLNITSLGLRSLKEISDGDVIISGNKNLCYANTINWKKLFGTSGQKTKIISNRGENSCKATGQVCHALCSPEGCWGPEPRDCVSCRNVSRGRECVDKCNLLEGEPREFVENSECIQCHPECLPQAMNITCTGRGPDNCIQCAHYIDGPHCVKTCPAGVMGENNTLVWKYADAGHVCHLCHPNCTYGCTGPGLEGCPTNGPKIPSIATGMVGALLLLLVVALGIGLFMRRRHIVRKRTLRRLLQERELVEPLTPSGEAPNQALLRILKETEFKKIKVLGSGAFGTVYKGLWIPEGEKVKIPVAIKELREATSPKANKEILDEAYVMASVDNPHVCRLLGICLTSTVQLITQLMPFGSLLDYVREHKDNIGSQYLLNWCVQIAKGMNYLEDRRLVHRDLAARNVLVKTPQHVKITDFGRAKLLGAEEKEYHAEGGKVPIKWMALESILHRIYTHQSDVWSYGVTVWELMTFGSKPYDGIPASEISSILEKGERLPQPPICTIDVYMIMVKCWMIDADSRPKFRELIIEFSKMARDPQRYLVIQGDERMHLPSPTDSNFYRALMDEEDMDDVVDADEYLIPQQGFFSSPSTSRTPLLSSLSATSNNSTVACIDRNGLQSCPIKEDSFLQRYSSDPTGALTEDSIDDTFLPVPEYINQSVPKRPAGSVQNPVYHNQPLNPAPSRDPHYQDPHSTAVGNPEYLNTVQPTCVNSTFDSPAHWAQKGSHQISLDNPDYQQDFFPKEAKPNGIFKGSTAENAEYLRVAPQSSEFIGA
# Description: as §1, §2
# [1] = ATP at Km, read-out: IC50 del19/T790M/C797S, Km ATP
# [2] = ATP at Km, read-out: IC50 WT, Km ATP
# [3] = ATP at Km, read-out: IC50 L858R/T790M/C797S, Km ATP
# [4] = ATP at Km, read-out: IC50 del19/C797S, Km ATP
# [5] = ATP at Km, read-out: IC50 L858R/C797S, Km ATP
# [6] = IC50 del19/T790M/C797S (nM) 100 μM ATP, 100 μM ATP
# [7] = Km ATP, read-out: IC50 del19/T790M/C797S (nM) Km ATP
# [8] = IC50 WT (nM) 100 μM ATP, 100 μM ATP
# [9] = IC50 L858R/T790M/C797S (nM) 100 μM ATP, 100 μM ATP
# [10] = IC50 del19/C797S (nM) 100 μM ATP, 100 μM ATP
# [11] = Km ATP, read-out: IC50 del19/C797S (nM) Km ATP
# [12] = IC50 L858R/C797S (nM) 100 μM ATP, 100 μM ATP
# [13] = Km ATP, read-out: IC50 L858R/C797S (nM) Km ATP
# [14] = Km ATP, read-out: IC50 WT (nM) Km ATP
# Chain of EGFR del19/T790M/C797S (P00533 with tags, fused parts or gaps DEL746-750/T790M/C797S): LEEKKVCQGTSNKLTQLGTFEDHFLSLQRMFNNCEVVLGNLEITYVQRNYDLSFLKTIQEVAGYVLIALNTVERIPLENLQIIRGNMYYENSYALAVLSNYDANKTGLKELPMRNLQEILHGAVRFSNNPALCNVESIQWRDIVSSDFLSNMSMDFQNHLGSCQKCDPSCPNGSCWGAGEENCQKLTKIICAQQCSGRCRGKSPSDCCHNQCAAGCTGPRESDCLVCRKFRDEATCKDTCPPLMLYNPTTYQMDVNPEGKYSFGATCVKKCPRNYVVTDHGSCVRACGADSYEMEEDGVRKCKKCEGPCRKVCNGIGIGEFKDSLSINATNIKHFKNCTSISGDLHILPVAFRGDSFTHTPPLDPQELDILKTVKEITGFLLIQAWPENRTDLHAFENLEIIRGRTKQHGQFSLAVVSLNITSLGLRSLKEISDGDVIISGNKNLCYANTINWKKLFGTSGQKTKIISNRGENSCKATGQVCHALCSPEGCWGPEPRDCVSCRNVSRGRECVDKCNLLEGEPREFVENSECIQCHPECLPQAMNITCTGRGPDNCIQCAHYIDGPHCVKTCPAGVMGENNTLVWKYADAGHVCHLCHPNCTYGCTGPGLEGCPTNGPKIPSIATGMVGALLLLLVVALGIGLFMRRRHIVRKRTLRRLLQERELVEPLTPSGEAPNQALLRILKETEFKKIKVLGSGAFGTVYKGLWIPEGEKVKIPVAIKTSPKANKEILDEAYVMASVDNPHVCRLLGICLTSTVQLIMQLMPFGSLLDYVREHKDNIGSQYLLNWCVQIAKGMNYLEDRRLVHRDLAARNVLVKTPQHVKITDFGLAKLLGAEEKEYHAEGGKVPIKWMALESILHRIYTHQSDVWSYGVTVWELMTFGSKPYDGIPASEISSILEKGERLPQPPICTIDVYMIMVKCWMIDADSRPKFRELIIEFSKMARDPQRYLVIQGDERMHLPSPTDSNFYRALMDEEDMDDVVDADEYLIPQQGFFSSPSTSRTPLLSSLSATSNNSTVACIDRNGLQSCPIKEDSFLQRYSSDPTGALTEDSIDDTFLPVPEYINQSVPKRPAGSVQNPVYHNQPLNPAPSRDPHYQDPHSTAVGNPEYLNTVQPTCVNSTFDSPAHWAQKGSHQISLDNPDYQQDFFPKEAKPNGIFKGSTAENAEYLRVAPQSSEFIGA
SMILES,IC50 (EGFR del19/T790M/C797S; [1]),IC50 (EGFR wildtype; [2]),IC50 (EGFR L858R/T790M/C797S; [3]),IC50 (EGFR del19/C797S; [4]),IC50 (EGFR L858R/C797S; [5]),IC50 (EGFR del19/C797S; [11]),IC50 (EGFR L858R/C797S; [13]),also measured
"CN1CCC(Oc2ccc(-c3cnc(Nc4ccnc(-c5cnn(S(=O)(=O)C6CC6)c5)n4)cc3NC3CCCN(CCF)C3)nc2)CC1 (stereo not shown) [Example 257, N^6′-(2-(1-(Cyclopropylsulfonyl)-1H-pyrazol-4-yl)pyrimidin-4-yl)-N^4′-(1-(2-fluoroethyl)piperidin-3-yl)-5-((1-methylpiperidin-4-yl)oxy)-[2,3′-bipyridine]-4′,6′-diamine]",0.4 nM,7.4 nM,0.2 nM,1 nM,0.4 nM,–,–,–
"CN(C)CCOc1ccc(-c2cnc(Nc3ccnc(-c4cnn(S(=O)(=O)C5CC5)c4)n3)cc2N[C@H]2CC[C@@H](C(C)(C)O)CC2)nc1 [Example 210, 2-((1s,4s)-4-((6′-((2-(1-(Cyclopropylsulfonyl)-1H-pyrazol-4-yl)pyrimidin-4-yl)amino)-5-(2-(dimethylamino)ethoxy)-[2,3′-bipyridin]-4′-yl)amino)cyclohexyl)propan-2-ol]",0.3 nM,0.6 nM,0.2 nM,0.3 nM,0.1 nM,–,–,"IC50 (EGFR del19/T790M/C797S; IC50 del19/T790M/C797S, 100 μM ATP): 0.4 nM; IC50 (EGFR wildtype; IC50 WT, 100 μM ATP): 426 nM; IC50 (EGFR L858R/T790M/C797S; IC50 L858R/T790M/C797S, 100 μM ATP): 0.3 nM; IC50 (EGFR del19/C797S; IC50 del19/C797S, 100 μM ATP): 0.5 nM; IC50 (EGFR L858R/C797S; IC50 L858R/C797S, 100 μM ATP): 1.8 nM"
"CC(C)(O)c1ccc(-c2cnc(Nc3ccnc(-c4cnn(S(=O)(=O)C5CC5)c4)n3)cc2NC2CCCN(CCF)C2)nc1 (stereo not shown) [Example 177, 2-(6′-((2-(1-(Cyclopropylsulfonyl)-1H-pyrazol-4-yl)pyrimidin-4-yl)amino)-4′-((1-(2-fluoroethyl)piperidin-3-yl)amino)-[2,3′-bipyridin]-5-yl)propan-2-ol]",0.9 nM,40.5 nM,1.9 nM,3.7 nM,9 nM,–,–,–
"CN1CCC(Oc2ccc(-c3cnc(Nc4ccnc(-c5cnn(S(=O)(=O)C6CC6)c5)n4)cc3N[C@H]3CC[C@@H](F)CC3)nc2)CC1 [Example 132, N^6′-(2-(1-(Cyclopropylsulfonyl)-1H-pyrazol-4-yl)pyrimidin-4-yl)-N^4′-((1s,4s)-4-fluorocyclohexyl)-5-((1-methylpiperidin-4-yl)oxy)-[2,3′-bipyridine]-4′,6′-diamine]",–,–,–,–,–,0.4 nM,0.3 nM,"IC50 (EGFR del19/T790M/C797S; [7]): 0.4 nM; IC50 (EGFR wildtype; [14]): 0.8 nM; IC50 (EGFR L858R/T790M/C797S; Km ATP, read-out: IC50 L858R/T790M/C797S (nM) Km ATP): 0.4 nM"
"CN1CCN(c2ccnc(-c3cnc(Nc4ccnc(-c5cnn(S(=O)(=O)C6CC6)c5)n4)cc3N[C@H]3CC[C@@](C)(O)CC3)c2)CC1 [Example 58, (1s,4s)-4-((6′-((2-(1-(Cyclopropylsulfonyl)-1H-pyrazol-4-yl)pyrimidin-4-yl)amino)-4-(4-methylpiperazin-1-yl)-[2,3′-bipyridin]-4′-yl)amino)-1-methylcyclohexan-1-ol]",–,–,–,–,–,8 nM,1.7 nM,IC50 (EGFR del19/T790M/C797S; [6]): 1.1 nM; IC50 (EGFR wildtype; [8]): > 10000 nM; IC50 (EGFR wildtype; [14]): 97.7 nM; IC50 (EGFR L858R/T790M/C797S; [9]): 1.1 nM; IC50 (EGFR del19/C797S; [10]): 7.2 nM; IC50 (EGFR L858R/C797S; [12]): 56.4 nM

# More lines, main results first:
IC50 (EGFR del19/T790M/C797S; [1]),IC50 (EGFR wildtype; [2]),IC50 (EGFR L858R/T790M/C797S; [3]),IC50 (EGFR del19/C797S; [4]),IC50 (EGFR L858R/C797S; [5]),IC50 (EGFR del19/C797S; [11]),IC50 (EGFR L858R/C797S; [13]),SMILES,also measured
–,–,–,–,–,0.2 nM,0.3 nM,"C[C@]1(O)CC[C@@H](Nc2cc(Nc3ccnc(-c4cnn(S(=O)(=O)C5CC5)c4)n3)ncc2-c2ccc(F)cn2)CC1 [Example 6, (1s,4s)-4-((6′-((2-(1-(Cyclopropylsulfonyl)-1H-pyrazol-4-yl)pyrimidin-4-yl)amino)-5-fluoro-[2,3′-bipyridin]-4′-yl)amino)-1-methylcyclohexan-1-ol]",IC50 (EGFR del19/T790M/C797S; [6]): 0.1 nM; IC50 (EGFR del19/T790M/C797S; [7]): 0.2 nM; IC50 (EGFR wildtype; [8]): > 10000 nM; IC50 (EGFR L858R/T790M/C797S; [9]): 0.1 nM; IC50 (EGFR del19/C797S; [10]): 0.4 nM; IC50 (EGFR L858R/C797S; [12]): 6.5 nM
9.6 nM,9.2 nM,4.1 nM,10.3 nM,7.5 nM,–,–,"COC(c1ccc(-c2cnc(Nc3ccnc(-c4cnn(S(=O)(=O)C5CC5)c4)n3)cc2NC2CCC(CO)CC2)nc1)C(F)(F)F (stereo not shown) [Example 261, ((1s,4s)-4-((6′-((2-(1-(Cyclopropylsulfonyl)-1H-pyrazol-4-yl)pyrimidin-4-yl)amino)-5-(2,2,2-trifluoro-1-methoxyethyl)-[2,3′-bipyridin]-4′-yl)amino)cyclohexyl)methanol]",–
